Tests used:
[1] = test system: healthy male volunteers; experiment: Human clinical trial: free testosterone levels after CASODEX together with NOLVADEX or CASODEX alone; assay type: in vivo; details: for Free testosterone concentration, gmean: n=7
Experimental: The following clinical trial was performed to determine the effect of the administration of CASODEX™ together with NOLVADEX™ on free testosterone levels in healthy male volunteers over a 6 week period.
Key Inclusion Criteria: Male, aged 65 years or above showing no clinically significant abnormalities in routine haematological and biochemical tests and having endocrinology and prostate specific antigen (PSA) results within normal limits.
Key Exclusion Criteria: Previous inclusion in a clinical trial using CASODEX™; concurrent treatment with any drugs with the exception of paracetomol; history or presence of any testicular abnormality; history or presence of gastrointestinal, hepatic or renal disease, or other condition known to interfere with the absorption, distribution, metabolism or excretion of drugs; a clinically significant illness within 2 weeks of trial commencement; definite or suspected personal or family history of significant adverse drug reactions or any hypersensitivity to CASODEX™ or NOLVADEX™; treatment within the previous 3 months with any drugs known to have a well-defined potential for hepatotoxicity or hepatic interaction.
Dosage: The CASODEX™ was administered daily at a dose of 150 mg and the NOLVADEX™ was administered daily at a dose of 20 mg. All treatments were in tablet form and taken once daily. Daily treatment with CASODEX™ plus NOLVADEX™ was for 6 weeks, this period being selected as the minimum time to attain steady-state plasma concentrations for the drugs. Another set of volunteers were administered CASODEX™ alone at a daily dose of 150 mg for 4 weeks. All treatments were in tablet form and taken once daily.
Key Assessment: Free testosterone concentrations were measured during the course of the trial.
Day 1 samples were drawn before dosing, and therefore act as a baseline measurement.

[2] = test system: humans; details: single agent therapy; cited from earlier work
[3] = test system: men; details: cited from earlier work

SMILES: CC(O)(CS(=O)(=O)c1ccc(F)cc1)C(=O)Nc1ccc(C#N)c(C(F)(F)F)c1 (stereo not drawn) [CASODEX™, bicalutamide]
- Free testosterone concentration, gmean ([1]; Day 1, sample drawn before dosing (baseline)): 0.048 nmol/L
- Free testosterone, ratio to Day 1 ([1]; Day 29, CASODEX alone 150 mg daily): 1.58
- Free testosterone concentration, gmean ([1]; Day 29, CASODEX alone 150 mg daily for 4 weeks): 0.076 nmol/L
- Increase in mean free testosterone concentration by the end of the treatment period ([1]; end of treatment period (4 weeks CASODEX alone; 6 weeks combination)): 58%

SMILES: CC1(C)NC(=O)N(c2ccc([N+](=O)[O-])c(C(F)(F)F)c2)C1=O [nilutamide, 5,5-dimethyl-3-[4-nitro-3-(trifluoromethyl)phenyl]-2,4-imidazolidinedione]
- Change of basal level of circulating testosterone [2]: causes an increase

SMILES: CC/C(=C(\c1ccccc1)c1ccc(OCCN(C)C)cc1)c1ccccc1 [tamoxifen, (Z)-2-[p-(1,2-diphenylbut-1-enyl)phenoxy]ethyldimethylamine]
- Effect on mean serum testosterone, oestradiol, LH levels, LH pulse frequency and LH pulse amplitude ([3]; 13 normal men, 6 week administration (Spijkstra et al)): An increase
- Effect on basal serum levels of LH, oestradiol and testosterone ([3]; administration to men (Lewis-Jones et al)): elevates
- Effect on testosterone and LH ([3]; intake in adult men (Comhaire et al)): increase testosterone and LH
- Effect on basal LH, FSH and testosterone levels ([3]; three months' treatment, normogonadotrophic oligozoospermic men (van Bergeijk et al)): stimulated

Source: US20030158160A1, “Pharmaceutical combination of an anti-androgen and tamoxifen for providing an anti-androgenic effect and aromatase inhibition” (priority 2000, published 2003)
